Reference: ChEMBL document CHEMBL3046948, “Synthesis and SAR investigation of natural phenylpropene-derived methoxylated cinnamaldehydes and their novel Schiff bases as potent antimicrobial and antioxidant agents” (2013)
In brackets after ≈: the same amount, converted by molar mass. Activity calls are given as the source filed them. The rule behind the calls is not given here.

How the values were obtained:
Format in all cases: functional
[1] = tested on: Aspergillus niger; assay: Antimicrobial activity against Aspergillus niger MTCC 404 assessed as growth inhibition after 5 days by broth microdilution method
[2] = tested on: Enterobacter cloacae; assay: Antimicrobial activity against Enterobacter cloacae MTCC 509 assessed as growth inhibition after 24 hr by broth microdilution method
[3] = tested on: Bacillus subtilis; assay: Antimicrobial activity against Bacillus subtilis MTCC 121 assessed as growth inhibition after 24 hr by broth microdilution method
[4] = tested on: Trichophyton rubrum; assay: Antimicrobial activity against Trichophyton rubrum MTCC 296 assessed as growth inhibition after 5 days by broth microdilution method
[5] = tested on: Aspergillus sydowii; assay: Antimicrobial activity against Aspergillus sydowii MTCC 4335 assessed as growth inhibition after 5 days by broth microdilution method
[6] = tested on: Candida albicans; assay: Antimicrobial activity against Candida albicans MTCC 3017 assessed as growth inhibition after 24 hr by broth microdilution method
[7] = tested on: Pseudomonas aeruginosa; assay: Antimicrobial activity against Pseudomonas aeruginosa MTCC 424 assessed as growth inhibition after 24 hr by broth microdilution method
[8] = tested on: Aspergillus parasiticus; assay: Antimicrobial activity against Aspergillus parasiticus MTCC 2797 assessed as growth inhibition after 5 days by broth microdilution method
[9] = tested on: Escherichia coli; assay: Antimicrobial activity against Escherichia coli MTCC 43 assessed as growth inhibition after 24 hr by broth microdilution method
[10] = tested on: Staphylococcus aureus; assay: Antimicrobial activity against Staphylococcus aureus MTCC 3160 assessed as growth inhibition after 24 hr by broth microdilution method
[11] = tested on: Radical scavenging activity; assay: Antioxidant activity assessed as inhibition of DPPH radical formation at 2 mg/ml after 30 min by spectrophotometric analysis
[12] = tested on: Micrococcus luteus; assay: Antimicrobial activity against Micrococcus luteus MTCC 2470 assessed as growth inhibition after 24 hr by broth microdilution method
[13] = tested on: Klebsiella pneumoniae; assay: Antimicrobial activity against Klebsiella pneumoniae MTCC 109 assessed as growth inhibition after 24 hr by broth microdilution method
[14] = tested on: Burkholderia cepacia; assay: Antimicrobial activity against Burkholderia cepacia MTCC 438 assessed as growth inhibition after 24 hr by broth microdilution method
[15] = tested on: Pichia kudriavzevii; assay: Antimicrobial activity against Pichia kudriavzevii MTCC 231 assessed as growth inhibition after 24 hr by broth microdilution method

| SMILES | MIC ([1]; MTCC 404, 120 h) [µM] | MIC ([2]; MTCC 509, 24 h) [µM] | MIC ([3]; MTCC 121, 24 h) [µM] | MIC ([4]; MTCC 296, 120 h) [µM] | MIC ([5]; MTCC 4335, 120 h) [µM] | MIC ([6]; MTCC 3017, 24 h) [µM] | MIC [7] | MIC ([8]; MTCC 2797, 120 h) [µM] | MIC ([9]; MTCC 43, 24 h) [µM] | MIC ([10]; MTCC 3160, 24 h) [µM] | MIC ([12]; MTCC 2470, 24 h) [µM] | MIC ([14]; MTCC 438, 24 h) [µM] | MIC ([15]; MTCC 231, 24 h) [µM] | MIC [1] | MIC [5] | MIC [8] | MIC [9] | MIC [13] | MIC [2] | inhibition [11] [%] | further results |
| --- | --- | --- | --- | --- | --- | --- | --- | --- | --- | --- | --- | --- | --- | --- | --- | --- | --- | --- | --- | --- | --- |
| C(=C\c1ccc2c(c1)OCO2)/C=N/c1nccs1 | 3870 (≈ 1000 µg/mL) | 480 (≈ 124 µg/mL) | 120 (≈ 31 µg/mL) | 970 (≈ 251 µg/mL) | 1930 (≈ 499 µg/mL) | 970 (≈ 251 µg/mL) | inactive | 3870 (≈ 1000 µg/mL) | 970 (≈ 251 µg/mL) | 480 (≈ 124 µg/mL) | 970 (≈ 251 µg/mL) | 1930 (≈ 499 µg/mL) | 970 (≈ 251 µg/mL) |  |  |  |  |  |  | 3.91 | MIC ([13]; MTCC 109, 24 h): 970 µM (≈ 251 µg/mL) |
| C(=C\c1nc2ccccc2[nH]1)/c1ccc2c(c1)OCO2 | 950 (≈ 251 µg/mL) | 950 (≈ 251 µg/mL) | 3780 (≈ 999 µg/mL) | 470 (≈ 124 µg/mL) | 1900 (≈ 502 µg/mL) | 470 (≈ 124 µg/mL) |  | 1900 (≈ 502 µg/mL) | 1900 (≈ 502 µg/mL) | 1900 (≈ 502 µg/mL) | 1900 (≈ 502 µg/mL) | 470 (≈ 124 µg/mL) | 470 (≈ 124 µg/mL) |  |  |  |  |  |  | 32.6 | MIC ([7]; MTCC 424, 24 h): 10 µM (≈ 2.64 µg/mL); MIC ([13]; MTCC 109, 24 h): 1900 µM (≈ 502 µg/mL) |
| Cc1ccc2nc(/N=C/C=C/c3ccc4c(c3)OCO4)sc2c1 |  | 770 (≈ 248 µg/mL) | 770 (≈ 248 µg/mL) | 770 (≈ 248 µg/mL) |  | 770 (≈ 248 µg/mL) | inactive |  |  | 380 (≈ 123 µg/mL) | 770 (≈ 248 µg/mL) | 770 (≈ 248 µg/mL) | 770 (≈ 248 µg/mL) | inactive | inactive | inactive | inactive | inactive |  | 3.19 |  |
| CC(=O)c1ccc(/N=C/C=C/c2ccc3c(c2)OCO3)cc1 | 1700 (≈ 499 µg/mL) |  | 850 (≈ 249 µg/mL) | 1700 (≈ 499 µg/mL) | 850 (≈ 249 µg/mL) | 1700 (≈ 499 µg/mL) | inactive | 1700 (≈ 499 µg/mL) |  | 850 (≈ 249 µg/mL) | 850 (≈ 249 µg/mL) | 1700 (≈ 499 µg/mL) | 1700 (≈ 499 µg/mL) |  |  |  | inactive | inactive | inactive | 4.49 |  |
| C(=C\c1ccc2c(c1)OCO2)/C=N/c1nc2ccccc2s1 |  | 810 (≈ 250 µg/mL) | 400 (≈ 123 µg/mL) | 810 (≈ 250 µg/mL) |  | 810 (≈ 250 µg/mL) |  |  | 810 (≈ 250 µg/mL) | 200 (≈ 61.7 µg/mL) | 200 (≈ 61.7 µg/mL) | 810 (≈ 250 µg/mL) | 1620 (≈ 500 µg/mL) | inactive | inactive | inactive |  |  |  | 3.55 | MIC ([7]; MTCC 424, 24 h): 810 µM (≈ 250 µg/mL); MIC ([13]; MTCC 109, 24 h): 810 µM (≈ 250 µg/mL) |
| NC(=S)N/N=C/C=C/c1ccc2c(c1)OCO2 |  |  |  |  |  |  | inactive |  |  |  |  |  |  | inactive | inactive | inactive | inactive | inactive | inactive | 10.7 | MIC [3]: inactive; MIC [4]: inactive; MIC [6]: inactive; MIC [10]: inactive; MIC [12]: inactive; MIC [14]: inactive; MIC [15]: inactive |
| CCOc1ccc2nc(/N=C/C=C/c3ccc4c(c3)OCO4)sc2c1 |  |  | 1420 (≈ 500 µg/mL) | 1420 (≈ 500 µg/mL) | 710 (≈ 250 µg/mL) | 1420 (≈ 500 µg/mL) | inactive | 710 (≈ 250 µg/mL) |  | 710 (≈ 250 µg/mL) | 710 (≈ 250 µg/mL) | 1420 (≈ 500 µg/mL) | 1420 (≈ 500 µg/mL) | inactive |  |  | inactive | inactive | inactive | 0.24 |  |
| COc1cc(OC)c(OC)cc1C=O [ASARALDEHYDE] | 5100 (≈ 1000 µg/mL) | 10200 (≈ 2000 µg/mL) | 5100 (≈ 1000 µg/mL) | 160 (≈ 31.4 µg/mL) | 5100 (≈ 1000 µg/mL) | 2550 (≈ 500 µg/mL) |  | 2550 (≈ 500 µg/mL) | 10200 (≈ 2000 µg/mL) | 5100 (≈ 1000 µg/mL) | 2550 (≈ 500 µg/mL) | 5100 (≈ 1000 µg/mL) | 2550 (≈ 500 µg/mL) |  |  |  |  |  |  |  | MIC ([7]; MTCC 424, 24 h): 2550 µM (≈ 500 µg/mL); MIC ([13]; MTCC 109, 24 h): 10200 µM (≈ 2000 µg/mL) |
| Cc1cc(C(C)(C)C)c(O)c(C(C)(C)C)c1 |  |  |  |  |  |  |  |  |  |  |  |  |  |  |  |  |  |  |  | 91.6 |  |

Second part, led by results:

| MIC ([1]; MTCC 404, 120 h) [µM] | MIC ([2]; MTCC 509, 24 h) [µM] | MIC ([3]; MTCC 121, 24 h) [µM] | MIC ([4]; MTCC 296, 120 h) [µM] | MIC ([5]; MTCC 4335, 120 h) [µM] | MIC ([6]; MTCC 3017, 24 h) [µM] | MIC [7] | MIC ([8]; MTCC 2797, 120 h) [µM] | MIC ([9]; MTCC 43, 24 h) [µM] | MIC ([10]; MTCC 3160, 24 h) [µM] | MIC ([12]; MTCC 2470, 24 h) [µM] | MIC ([14]; MTCC 438, 24 h) [µM] | MIC ([15]; MTCC 231, 24 h) [µM] | MIC [1] | MIC [5] | MIC [8] | MIC [9] | MIC [13] | MIC [2] | SMILES | inhibition [11] [%] | further results |
| --- | --- | --- | --- | --- | --- | --- | --- | --- | --- | --- | --- | --- | --- | --- | --- | --- | --- | --- | --- | --- | --- |
|  |  | 730 (≈ 250 µg/mL) | 730 (≈ 250 µg/mL) |  | 730 (≈ 250 µg/mL) | inactive |  |  | 730 (≈ 250 µg/mL) | 730 (≈ 250 µg/mL) | 730 (≈ 250 µg/mL) | 730 (≈ 250 µg/mL) | inactive | inactive | inactive | inactive | inactive | inactive | Clc1ccc2nc(/N=C/C=C/c3ccc4c(c3)OCO4)sc2c1 | 80.7 |  |
| 990 (≈ 249 µg/mL) | 990 (≈ 249 µg/mL) | 1990 (≈ 500 µg/mL) | 990 (≈ 249 µg/mL) | 1990 (≈ 500 µg/mL) | 990 (≈ 249 µg/mL) |  | 1990 (≈ 500 µg/mL) | 1990 (≈ 500 µg/mL) | 1990 (≈ 500 µg/mL) | 990 (≈ 249 µg/mL) | 490 (≈ 123 µg/mL) | 490 (≈ 123 µg/mL) |  |  |  |  |  |  | C(=C\c1ccc2c(c1)OCO2)/C=N/c1ccccc1 | 25.8 | MIC ([7]; MTCC 424, 24 h): 250 µM (≈ 62.8 µg/mL); MIC ([13]; MTCC 109, 24 h): 990 µM (≈ 249 µg/mL) |
|  |  |  |  | 3210 (≈ 999 µg/mL) |  | inactive | 1600 (≈ 498 µg/mL) |  |  |  |  |  | inactive |  |  | inactive | inactive | inactive | COc1ccc(/N=C/C=C/c2ccc3c(c2)OCO3)cc1OC | 15.4 | MIC [3]: inactive; MIC [4]: inactive; MIC [6]: inactive; MIC [10]: inactive; MIC [12]: inactive; MIC [14]: inactive; MIC [15]: inactive |
|  |  |  |  |  |  | inactive |  |  |  |  |  |  | inactive | inactive | inactive | inactive | inactive | inactive | COc1ccc(/C=C/C=O)c(Br)c1OC |  | MIC [3]: inactive; MIC [4]: inactive; MIC [6]: inactive; MIC [10]: inactive; MIC [12]: inactive; MIC [14]: inactive; MIC [15]: inactive |
|  |  |  | 8570 (≈ 2000 µg/mL) |  | 8570 (≈ 2000 µg/mL) | inactive |  |  |  |  |  | 8570 (≈ 2000 µg/mL) | inactive | inactive | inactive | inactive | inactive | inactive | NC(=O)N/N=C/C=C/c1ccc2c(c1)OCO2 | 2.37 | MIC [3]: inactive; MIC [10]: inactive; MIC [12]: inactive; MIC [14]: inactive |
